Biological target: HPK1 (Homo sapiens, UniProt Q92918)
Experiment: HPK1 Lantha Binding Assay ("Lanth")
Settings: Table B1-1, read-out: HPK1 Ki (μM) (Lanth)
Method in brief: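 Compounds in an 11-point 5-fold series were preincubated 1 h at 23 C with 2 nM kinase plus 2 nM Eu-anti-GST antibody. Then 15 nM Tracer222 was added for another hour, and time-resolved FRET was read at 665/615 nm. Ki values come from a Morrison tight-binding model that uses the tracer Kd.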

Sequence of HPK1 (Q92918 whole entry, looked up): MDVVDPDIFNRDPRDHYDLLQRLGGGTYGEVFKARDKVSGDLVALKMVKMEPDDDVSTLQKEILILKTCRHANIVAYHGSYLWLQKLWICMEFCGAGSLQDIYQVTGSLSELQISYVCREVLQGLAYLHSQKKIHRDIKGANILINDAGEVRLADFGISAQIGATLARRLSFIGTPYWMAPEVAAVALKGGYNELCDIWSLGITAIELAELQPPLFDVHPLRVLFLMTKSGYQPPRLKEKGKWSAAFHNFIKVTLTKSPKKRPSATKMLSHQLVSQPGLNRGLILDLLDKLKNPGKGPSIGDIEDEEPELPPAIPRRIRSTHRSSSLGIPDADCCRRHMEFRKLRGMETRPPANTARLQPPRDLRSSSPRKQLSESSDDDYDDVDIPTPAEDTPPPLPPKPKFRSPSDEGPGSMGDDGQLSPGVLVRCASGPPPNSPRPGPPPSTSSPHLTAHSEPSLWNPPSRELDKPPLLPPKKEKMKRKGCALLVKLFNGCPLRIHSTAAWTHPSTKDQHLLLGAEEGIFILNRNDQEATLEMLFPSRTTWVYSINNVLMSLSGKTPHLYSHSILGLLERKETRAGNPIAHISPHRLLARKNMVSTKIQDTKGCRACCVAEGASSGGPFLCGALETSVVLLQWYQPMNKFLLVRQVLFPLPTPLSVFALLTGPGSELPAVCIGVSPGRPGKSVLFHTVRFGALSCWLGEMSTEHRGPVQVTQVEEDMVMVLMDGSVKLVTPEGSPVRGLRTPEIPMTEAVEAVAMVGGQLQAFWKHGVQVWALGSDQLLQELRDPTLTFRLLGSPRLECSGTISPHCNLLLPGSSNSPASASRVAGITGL

SMILES	Ki [nM]
Cc1ccncc1-c1cc2cc(NC(=O)[C@@H]3C[C@H]3c3cn[nH]c3)ncc2c(N)n1 (racemic) [Compound 122, (±)-trans-N-[8-amino-6-(4-methyl-3-pyridyl)-2,7-naphthyridin-3-yl]-2-(1H-pyrazol-4-yl)cyclopropanecarboxamide]	0.0629
COCCN1CC[C@]2(C[C@H]2C(=O)Nc2cc3cc(-c4cnccc4C)nc(N)c3cn2)C1 (racemic) [Compound 127, (±)-trans-N-(8-amino-6-(4-methylpyridin-3-yl)-2,7-naphthyridin-3-yl)-5-(2-methoxyethyl)-5-azaspiro[2.4]heptane-1-carboxamide]	5.3
COCCN1CC[C@]2(C[C@@H]2C(=O)Nc2cc3cc(-c4cnccc4C)nc(N)c3cn2)C1 (racemic) [Compound 128, (±)-cis-N-(8-amino-6-(4-methylpyridin-3-yl)-2,7-naphthyridin-3-yl)-5-(2-methoxyethyl)-5-azaspiro[2.4]heptane-1-carboxamide]	2.5
Cc1cc2[nH]c(=O)oc2cc1-c1cc2cc(NC(=O)C3C[C@H]3C#N)ncc2c(N)n1 (mixture of isomers) [Compound 135, (±)-((trans-)-N-(8-amino-6-(5-methyl-2-oxo-2,3-dihydrobenzo[d]oxazol-6-yl)-2,7-naphthyridin-3-yl)-2-cyanocyclopropanecarboxamide]	0.25
Cc1ccncc1-c1cc2cc(NC(=O)[C@@H]3C[C@@H]3C(=O)N(C)C)ncc2c(N)n1 (racemic) [Compound 136, (±)-cis-N1-(8-amino-6-(4-methylpyridin-3-yl)-2,7-naphthyridin-3-yl)-N2,N2-dimethylcyclopropane-1,2-dicarboxamide]	130
CCNC(=O)[C@H]1C[C@H]1C(=O)Nc1cc2cc(-c3cnccc3C)nc(N)c2cn1 (racemic) [Compound 137, (±)-(cis)-N1-(8-amino-6-(4-methylpyridin-3-yl)-2,7-naphthyridin-3-yl)-N2-ethylcyclopropane-1,2-dicarboxamide]	110
Cc1cc2c(cc1-c1cc3cc(NC(=O)[C@H]4C[C@@H]4C#N)ncc3c(N)n1)oc(=O)n2C (racemic) [Compound 142, (±)-trans-N-(8-amino-6-(3,5-dimethyl-2-oxo-2,3-dihydrobenzo[d]oxazol-6-yl)-2,7-naphthyridin-3-yl)-2-cyanocyclopropanecarboxamide]	1.4
Cc1cc2[nH]c(=O)oc2cc1-c1cc2cc(NC(=O)[C@@H]3C[C@H]3c3cn[nH]c3)ncc2c(N)n1 (racemic) [Compound 144, (±)-trans-N-[8-amino-6-(5-methyl-2-oxo-3H-1,3-benzoxazol-6-yl)-2,7-naphthyridin-3-yl]-2-(1H-pyrazol-4-yl)cyclopropanecarboxamide]	1.1
Cc1ccncc1-c1cc2cc(NC(=O)[C@H]3C[C@]34CCN(S(C)(=O)=O)C4)ncc2c(N)n1 (racemic) [Compound 149, (±)-cis-N-(8-amino-6-(4-methylpyridin-3-yl)-2,7-naphthyridin-3-yl)-5-(methylsulfonyl)-5-azaspiro[2.4]heptane-1-carboxamide]	0.78
CC(=O)N1CCC([C@@H]2C[C@H]2C(=O)Nc2cc3cc(-c4cnccc4C)nc(N)c3cn2)CC1 (racemic) [Compound 166, (±)-trans-2-(1-acetylpiperidin-4-yl)-N-(8-amino-6-(4-methylpyridin-3-yl)-2,7-naphthyridin-3-yl)cyclopropanecarboxamide]	1.5
Cc1cc(N2CCC(N)C2)ncc1-c1cc2cc(NC(=O)C3CC3F)ncc2c(N)n1 (racemic) [Compound 179, (±)-cis-N-[8-amino-6-[6-[(3S)-3-aminopyrrolidin-1-yl]-4-methyl-3-pyridyl]-2,7-naphthyridin-3-yl]-2-fluoro-cyclopropanecarboxamide]	2.9
N#C[C@H]1C[C@@H]1C(=O)Nc1cc2cc(-c3cnccc3CCO)nc(N)c2cn1 (racemic) [Compound 191, (±)-trans-N-(8-amino-6-(4-(2-hydroxyethyl)pyridin-3-yl)-2,7-naphthyridin-3-yl)-2-cyanocyclopropanecarboxamide]	2.7
Cc1ccncc1-c1nc(N)c2cnc(NC(=O)C3CC3)cc2c1C1=CC(O)CC1 (racemic) [Compound 204, N-(8-amino-5-(3-hydroxycyclopent-1-enyl)-6-(4-methylpyridin-3-yl)-2,7-naphthyridin-3-yl)cyclopropanecarboxamide]	0.99
Cc1ccncc1-c1cc2cc(NC(=O)[C@@H]3C[C@H]3CC#N)ncc2c(N)n1 (racemic) [Compound 212, (+/−)-trans-N-(8-amino-6-(4-methylpyridin-3-yl)-2,7-naphthyridin-3-yl)-2-(cyanomethyl)cyclopropanecarboxamide]	0.685
CNc1cncc(-c2cc3cc(NC(=O)[C@@H]4C[C@@H]4F)ncc3c(N)n2)c1C (racemic) [Compound 216, (+/−)-cis-N-(8-amino-6-(4-methyl-5-(methylamino)pyridin-3-yl)-2,7-naphthyridin-3-yl)-2-fluorocyclopropanecarboxamide]	3.53

Continued by falling Ki, values first:

Ki [nM]	SMILES
44	CNC(=O)c1c(C)c(-c2cc3cc(NC(=O)[C@H]4C[C@@H]4C#N)ncc3c(N)n2)c(C)n1C (racemic) [Compound 180, (±)-trans-4-[1-amino-6-[[trans-2-cyanocyclopropanecarbonyl]amino]-2,7-naphthyridin-3-yl]-N,1,3,5-tetramethyl-pyrrole-2-carboxamide]
32	Cc1ccncc1-c1cc2cc(NC(=O)[C@H]3C[C@@H]3C(=O)N(C)C)ncc2c(N)n1 (racemic) [Compound 138, (±)-trans-N1-(8-amino-6-(4-methylpyridin-3-yl)-2,7-naphthyridin-3-yl)-N2,N2-dimethylcyclopropane-1,2-dicarboxamide]
9.4	Cc1cc(-c2ccc[nH]c2=O)ncc1-c1cc2cc(NC(=O)[C@H]3C[C@H]3F)ncc2c(N)n1 (racemic) [Compound 167, (±)-cis-N-(8-amino-6-(4-methyl-6-(2-oxo-1,2-dihydropyridin-3-yl)pyridin-3-yl)-2,7-naphthyridin-3-yl)-2-fluorocyclopropanecarboxamide]
8.5	Cc1ccncc1-c1cc2cc(NC(=O)NC(C)CO)ncc2c(N)n1 (racemic) [Compound 177, 1-(8-amino-6-(4-methylpyridin-3-yl)-2,7-naphthyridin-3-yl)-3-(1-hydroxypropan-2-yl)urea]
7	Cc1ccncc1-c1cc2cc(NC(=O)[C@H]3C[C@]34CCNC4)ncc2c(N)n1 (racemic) [Compound 126, (±)-cis-N-(8-amino-6-(4-methylpyridin-3-yl)-2,7-naphthyridin-3-yl)-5-azaspiro[2.4]heptane-1-carboxamide]
6.5	N#C[C@H]1C[C@@H]1C(=O)Nc1cc2cc(-c3cn[nH]c3C(F)(F)F)nc(N)c2cn1 (racemic) [Compound 132, (±)-trans-N-[8-amino-6-[5-(trifluoromethyl)-1H-pyrazol-4-yl]-2,7-naphthyridin-3-yl]-2-cyano-cyclopropanecarboxamide]
2.8	Cc1ccncc1-c1cc2cc(NC(=O)[C@@H]3C[C@]34CCN(S(C)(=O)=O)C4)ncc2c(N)n1 (racemic) [Compound 148, (±)-trans-N-(8-amino-6-(4-methylpyridin-3-yl)-2,7-naphthyridin-3-yl)-5-(methylsulfonyl)-5-azaspiro[2.4]heptane-1-carboxamide]
2	COc1ccc(Cn2cncc2[C@@H]2C[C@H]2C(=O)Nc2cc3cc(-c4cnccc4C)nc(N)c3cn2)cc1 (racemic) [Compound 145, (±)-trans-N-[8-amino-6-(4-methyl-3-pyridyl)-2,7-naphthyridin-3-yl]-2-[3-[(4-methoxyphenyl)methyl]imidazol-4-yl]cyclopropanecarboxamide]
0.957	Cc1ccncc1-c1cc2cc(Nc3cnn(C(C)CO)c3)ncc2c(N)n1 (racemic) [Compound 213, (+/−)-2-(4-(8-amino-6-(4-methylpyridin-3-yl)-2,7-naphthyridin-3-ylamino)-1H-pyrazol-1-yl)propan-1-ol]
0.95	Cc1c(N)cncc1-c1cc2cc(NC(=O)[C@@H]3C[C@H]3C#N)ncc2c(N)n1 (racemic) [Compound 165, (±)-trans-N-(8-amino-6-(5-amino-4-methylpyridin-3-yl)-2,7-naphthyridin-3-yl)-2-cyanocyclopropanecarboxamide]
0.31	Cc1ccncc1-c1cc2cc(NC(=O)[C@@H]3C[C@H]3c3cccnc3)ncc2c(N)n1 (racemic) [Compound 131, (±)-trans-N-[8-amino-6-(4-methyl-3-pyridyl)-2,7-naphthyridin-3-yl]-2-(3-pyridyl)cyclopropane carboxamide]
0.258	Cc1ccncc1-c1nc(N)c2cnc(NC(=O)[C@H]3C[C@@H]3CC#N)cc2c1Br (racemic) [Compound 210, (+/−)-N-(8-amino-5-bromo-6-(4-methylpyridin-3-yl)-2,7-naphthyridin-3-yl)-2-(cyanomethyl)cyclopropanecarboxamide]
0.25	Cc1ccncc1-c1cc2cc(NC(=O)Nc3cnn(C(C)C#N)c3)ncc2c(N)n1 (racemic) [Compound 178, 1-[8-amino-6-(4-methyl-3-pyridyl)-2,7-naphthyridin-3-yl]-3-[1-(1-cyanoethyl)pyrazol-4-yl]urea]
0.0881	Cc1ccncc1-c1nc(N)c2cnc(NC(=O)[C@@H]3C[C@H]3CC#N)cc2c1C (racemic) [Compound 205, (+/−)-trans-N-(8-amino-5-methyl-6-(4-methylpyridin-3-yl)-2,7-naphthyridin-3-yl)-2-(cyanomethyl)cyclopropanecarboxamide]
0.02	CCS(=O)(=O)n1cc([C@H]2C[C@@H]2C(=O)Nc2cc3cc(-c4cnccc4C)nc(N)c3cn2)cn1 (racemic) [Compound 146, (±)-trans-N-[8-amino-6-(4-methyl-3-pyridyl)-2,7-naphthyridin-3-yl]-2-(1-ethylsulfonylpyrazol-4-yl)cyclopropanecarboxamide]
